Reference: patent publication US10967029B2, “Method of using Cistanche tubulosa extract to prevent, slow down, or treat an eye disease caused by oxidative stress” (Sinphar Pharmaceutical Co., Ltd., priority 2014, dated 2021)
In brackets after ≈: the same amount, converted by molar mass. Like-named read-outs stand apart in the source and are kept apart here.

How the values were obtained:
RPE cells [1] = details: for most effective action concentration range to t-BHP: t-BHP-induced cytotoxicity
Description: (§1) The cell culturing comprises the following steps. • 1. RPE cell clones were taken out from anti-frozen tubes in liquid nitrogen and quickly moved to a sterile hood after thawed in 37° C. water bath for 1 minute. RPE cell clones were taken out and placed in 10 cm dishes having 10 mL DMEM (Dulbecco's Modified Eagle Medium) therein. 10% inactivated fetal bovine serum (FBS), 2 mM L-glutamine, 100 U/mL penicillin, and 100 µg/mL streptomycin were added into the DMEM. • 2. The dishes were placed in a 37° C. incubator and cultured in conditions of a mixture gas of 95% air and 5% CO2, as well as 70% humidity. The old mediums were replaced by fresh mediums every 3 days. Serum-free DMEM was used instead of the mediums before performing experiments. • 3. When cells proliferated to nearly saturation, the numbers of cells were counted by a cell counter. […] Since RPE cells are attachment type cells, the medium containing the cells was transferred into 15 mL centrifugation tubes and then centrifuged at 72 g for 5 mines at room temperature when the medium was replaced. After centrifugation, the supernatant was removed and then fresh medium was added for culturing.
(§2) Before experiment, the medium was replaced by serum-free medium. Fixed quantity of RPE cells (2×10^5 cells/mL) were respectively placed in 96 wells of a plate. […] Next, different concentrations of oxidative stress inducer were added to treat the cells. […] The blue light having a wavelength of 480 nm and an illuminance of 350 lux was emitted by a blue light-emitting-diode (LED). Subsequently after treated by irradiating with blue light for 7 days or oxidative stress inducer for 24 hours, 0.5 mg/mL of MTT was added and reacted at 37° C. for 2 hours. Afterwards, 200 μL DMSO was added to each well. After slight mixing, the plate was vibrated in the dark for 10 minutes. After completely dissolving the residual cells, the enzyme immunoassay analyzer was used to detect the absorbance of each well. The cells untreated by oxidative stress inducers and embodiments were used as the control group. […]

RPE cells [2] = assay: Cell viability and growth measurement of RPE cells (MTT assay), cytotoxicity test; format: cell-based; details: cytotoxicity to RPE cells, 24 hours
Description: The cell culturing comprises the following steps. • 1.
Before experiments, the medium was replaced by serum-free medium. […] After placed in an incubator, the cells were cultured for 24 hours after treated by various concentrations of embodiments 1-5. Next, 1.0 mg/mL 3-(4,5-Dimethylthiazol-2-yl)-2,5-diphenyltetrazolium bromide (MTT) was added and reacted at 37° C. for 1 hour. Afterwards, 200 μL dimethyl sulfoxide (DMSO) was added into each well and shake in the dark at room temperature for 10 minutes after slight mixing. After the residual cells were completely dissolved, an enzyme immunoassay analyzer (MRX microplate reader, USA) was used to detect the 550 nm absorbance of each well. The cells untreated by embodiments were used as a control group after culturing for 24 hours.
One purpose of the example 1 is to test the cytotoxicity of the embodiments 1-5 to the RPE cells and the promotion of the embodiments 1-5 to the RPE cell growth. The mitochondrial enzyme of live cells can reduce the MTT to formazan of purple crystal dissolved by DMSO. In short, the metabolic activity of cells is used to determine whether cells are alive or not. The measured dissolving absorbance is equal to the cell viability. Therefore, the more the cells alive, the higher the absorbance. The calculating formula of the cell viability was shown below. Cell viability (%)=(light absorbance after cells treated by drugs for 24 hours/light absorbance of the control group after 24 hours)×100%
If P<0.05, it indicates a significant difference.
Referring to FIGS. 1-5, which are diagrams showing cytotoxicity testing results according to the instant disclosure respectively.

RPE cells [3] = format: cell-based; details: 0.1 mM H2O2
Description: as §1, §2

RPE cells [4] = assay: Protective effect to NaN3-induced cytotoxicity (MTT assay); details: 10 mM NaN3 (viability about 50% without treatment); medium and high concentrations
Description: as §1, with “After centrifugation, the supernatant was removed and then fresh medium was added for culturing.” left out
Before experiment, the medium was replaced by serum-free medium. Fixed quantity of RPE cells (2×10^5 cells/mL) were respectively placed in 96 wells of a plate. […] After completely dissolving the residual cells, the enzyme immunoassay analyzer was used to detect the absorbance of each well. […]

RPE cells [5] = assay: Protective effect to blue light irradiation-induced cytotoxicity (MTT assay); details: for most effective action concentration range to blue light irradiation: blue light-induced cytotoxicity
Description: as §1
Before experiment, the medium was replaced by serum-free medium. Fixed quantity of RPE cells (2×10^5 cells/mL) were respectively placed in 96 wells of a plate. […] Next, different concentrations of oxidative stress inducer were added to treat the cells. […] The blue light having a wavelength of 480 nm and an illuminance of 350 lux was emitted by a blue light-emitting-diode (LED). […] Afterwards, 200 μL DMSO was added to each well. After slight mixing, the plate was vibrated in the dark for 10 minutes. After completely dissolving the residual cells, the enzyme immunoassay analyzer was used to detect the absorbance of each well. The cells untreated by oxidative stress inducers and embodiments were used as the control group.
The statistical analysis was performed by Student's t-test or one way ANOVA. If P<0.05, it indicates a significant difference.
The concentrations of embodiment 3 were 15.625, 31.25, and 62.5 μg/mL. […]

| Molecule | most effective action concentration range to t-BHP (RPE cells [1]) | IC25 (RPE cells [2]) [mg/L] | IC50 (RPE cells [2]) [mg/L] | IC75 (RPE cells [2]) [mg/L] | protection of cells from H2O2 damage (RPE cells [3]) | cell viability (RPE cells [4]) [%] | most effective action concentration range to blue light irradiation (RPE cells [5]) | IC50 (RPE cells [2]; read-out: IC50) [mg/L] | cell viability (RPE cells [5]; 5 days, 31.25 µg/mL) | cytotoxicity response at high concentration (RPE cells [1]) |
| --- | --- | --- | --- | --- | --- | --- | --- | --- | --- | --- |
| echinacoside [Embodiment 2] | between low and medium concentrations | 50 | 75 | 100 | protected |  |  |  |  |  |
| Tubuloside A [Embodiment 5] |  | 150 | 200 | 250 | protected | ~100 |  |  |  |  |
| C[C@@H]1O[C@@H](O[C@@H]2[C@@H](O)[C@H](OCCc3ccc(O)c(O)c3)O[C@H](COC(=O)/C=C/c3ccc(O)c(O)c3)[C@H]2O)[C@H](O)[C@H](O)[C@H]1O [Embodiment 4, Isoacteoside] |  | 31.25 (≈ 50 µM) |  | 125 (≈ 200 µM) |  | ~100 | between low and medium concentrations | 62.5 (≈ 100 µM) |  |  |
| C[C@@H]1O[C@@H](O[C@@H]2[C@@H](O)[C@H](OCCc3ccc(O)c(O)c3)O[C@H](CO)[C@H]2OC(=O)/C=C/c2ccc(O)c(O)c2)[C@H](O)[C@H](O)[C@H]1O [Embodiment 3, Acteoside] | between low and medium concentrations | 31.25 (≈ 50 µM) |  | 125 (≈ 200 µM) | protected |  | between low and medium concentrations | 62.5 (≈ 100 µM) | above 90% | reasonable cytotoxicity responses were observed |
